Measurements taken from patent publication US9169224B2, “Piperazinyl and piperidinyl ureas as modulators of fatty acid amide hydrolase” (Janssen Pharmaceutica NV, priority 2004, dated 2015).

The compounds below were run against FAAH (Homo sapiens (Human), UniProt O00519) (assay: Assay Method 1: FAAH assay, T84 cell homogenate, 3H-anandamide hydrolysis). Settings: 3H-AEA tracer 200 nM, 1 h at rt.
Assay type: biochemical
Protocol: T84 frozen pellets (contents of 1-4×15 cm culture dishes) were homogenized in 300 mL of FAAH assay buffer (125 mM Tris, 1 mM EDTA, 0.2% glycerol, 0.02% Triton X-100, 0.4 mM Hepes, pH 9). The assay mixture was prepared from 50 μL of the cell homogenate, 10 μL of the test compound, and 40 μL of anandamide [1-3H-ethanolamine] (^3H-AEA; Perkin-Elmer, 10.3 Ci/mmol), which was added last, for a final tracer concentration of 200 nM. The reaction mixture was incubated at rt for 1 hour (h). During the incubation, 96-well Multiscreen filter plates (catalog number MAFCNOB50; Millipore, Bedford, Mass., USA) were loaded with 25 μL of activated charcoal (Multiscreen column loader, catalog number MACL09625, Millipore) and washed once with 100 μL of MeOH. Also during the incubation, 96-well DYNEX MicroLite plates (catalog number NL510410) were loaded with 100 μL of MicroScint40 (catalog number 6013641, Packard Bioscience, Meriden, Conn., USA). After the 1 h incubation, 60 μL of the reaction mixture were transferred to the charcoal plates, which were then assembled on top of the DYNEX plates using Centrifuge Alignment Frames (catalog number MACF09604, Millipore). The unbound, labeled ethanolamine was centrifuged through to the bottom plate (5 min at 2000 rpm), which was preloaded with the scintillant, as described above. The plates were sealed and left at rt for 1 h before counting on a Hewlett Packard TopCount.

Sequence of FAAH (O00519 whole entry): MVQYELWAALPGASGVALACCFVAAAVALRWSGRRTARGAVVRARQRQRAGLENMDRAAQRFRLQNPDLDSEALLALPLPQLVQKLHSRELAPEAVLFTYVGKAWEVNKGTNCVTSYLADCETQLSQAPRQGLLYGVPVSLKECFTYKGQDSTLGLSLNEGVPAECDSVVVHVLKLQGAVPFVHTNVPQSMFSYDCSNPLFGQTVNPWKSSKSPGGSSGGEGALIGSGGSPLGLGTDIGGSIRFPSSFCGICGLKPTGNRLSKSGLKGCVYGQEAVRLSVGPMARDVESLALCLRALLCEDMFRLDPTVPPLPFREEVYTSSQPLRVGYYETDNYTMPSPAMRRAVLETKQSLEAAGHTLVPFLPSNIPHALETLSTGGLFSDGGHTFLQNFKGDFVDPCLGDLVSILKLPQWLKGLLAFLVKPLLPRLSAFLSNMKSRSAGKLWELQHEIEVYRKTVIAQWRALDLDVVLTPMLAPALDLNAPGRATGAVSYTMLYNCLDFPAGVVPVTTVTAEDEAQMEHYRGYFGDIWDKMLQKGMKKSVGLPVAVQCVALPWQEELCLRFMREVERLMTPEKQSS

IC50 [nM] | SMILES
360 | O=C(Nc1ccccn1)N1CCN(Cc2ccc(Br)c(Br)c2)CC1 [Example 117, 4-(3,4-Dibromo-benzyl)-piperazine-1-carboxylic acid pyridin-2-ylamide]
2000 | CCOc1ccc(CN2CCN(C(=O)Nc3ccccc3)CC2)cc1 [Example 129, 4-(4-Ethoxy-benzyl)-piperazine-1-carboxylic acid phenylamide]
270 | COc1ccc(NC(=O)N2CCN(Cc3cnc4ccccc4c3)CC2)cc1 [Example 108, 4-Quinolin-3-ylmethyl-piperazine-1-carboxylic acid (4-methoxy-phenyl)-amide]
270 | O=C(Nc1ccccc1)N1CCC(Cc2ccccc2)CC1 [Example H, 4-Benzyl-piperidine-1-carboxylic acid phenylamide, reference compound]
10000 | CN(C)CCOc1cccc(CN2CCN(C(=O)Nc3ccccc3)CC2)c1 [Example 125, 4-[3-(2-Dimethylamino-ethoxy)-benzyl]-piperazine-1-carboxylic acid phenylamide]
110 | O=C(Nc1ccccc1)N1CCN(Cc2cccc(S(=O)(=O)c3ccc(Cl)cc3)c2)CC1 [Example 72, 4-[3-(4-Chloro-benzenesulfonyl)-benzyl]-piperazine-1-carboxylic acid phenylamide]
120 | O=C(Nc1ccccc1)N1CCN(Cc2ccc(F)c(Br)c2)CC1 [Example 29, 4-(3-Bromo-4-fluoro-benzyl)-piperazine-1-carboxylic acid phenylamide]
2000 | O=C(Nc1ccccc1)N1CCN(Cc2cccc(OCCCN3CCCCC3)c2)CC1 [Example 128, 4-[3-(3-Piperidin-1-yl-propoxy)-benzyl]-piperazine-1-carboxylic acid phenylamide]
410 | O=C(Nc1ccccc1)N1CCN(Cc2cccc(-c3ccccc3)c2)CC1 [Example 70, 4-Biphenyl-3-ylmethyl-piperazine-1-carboxylic acid phenylamide]
2300 | Cc1cccc(NC(=O)N2CCC(Cc3ccccc3)CC2)c1 [Example 114, 4-Benzyl-piperidine-1-carboxylic acid m-tolylamide]
360 | O=C(Nc1ccc(Cl)cc1)N1CCN(Cc2cnc3ccccc3c2)CC1 [Example 101, 4-Quinolin-3-ylmethyl-piperazine-1-carboxylic acid (4-chloro-phenyl)-amide]
1100 | O=C(Nc1ccccc1)N1CCN(Cc2cccc3ccccc23)CC1 [Example 40, 4-Naphthalen-1-ylmethyl-piperazine-1-carboxylic acid phenylamide]
23 | O=C(Nc1ccccc1)N1CCN(Cc2cnc3ccc(Cl)cc3c2)CC1 [Example 69, 4-(6-Chloro-quinolin-3-ylmethyl)-piperazine-1-carboxylic acid phenylamide]
380 | O=C(Nc1ccccc1)N1CCN(Cc2cccc(OS(=O)(=O)c3ccc(Cl)cc3)c2)CC1 [Example 139, 4-Chloro-benzenesulfonic acid 3-(4-phenylcarbamoyl-piperazin-1-ylmethyl)-phenyl ester]
230 | Cn1ccc2cc(CN3CCN(C(=O)Nc4ccccc4)CC3)ccc21 [Example 53, 4-(1-Methyl-1H-indol-5-ylmethyl)-piperazine-1-carboxylic acid phenylamide]
200 | Cc1cccc(NC(=O)N2CCN(Cc3cnc4ccccc4c3)CC2)c1 [Example 109, 4-Quinolin-3-ylmethyl-piperazine-1-carboxylic acid m-tolylamide]
80 | O=C(Nc1ccccc1)N1CCN(Cc2cccc(Oc3ccccc3)c2)CC1 [Example 28, 4-(3-Phenoxy-benzyl)-piperazine-1-carboxylic acid phenylamide]
9000 | O=C(Nc1ccccc1)N1CCN(Cc2cc3ccccc3nc2Cl)CC1 [Example 56, 4-(2-Chloro-quinolin-3-ylmethyl)-piperazine-1-carboxylic acid phenylamide]
20 | O=C(Nc1ccccc1)N1CCN(Cc2cccc(Oc3ccc(Cl)c(Cl)c3)c2)CC1 [Example 61, 4-[3-(3,4-Dichloro-phenoxy)-benzyl]-piperazine-1-carboxylic acid phenylamide]
1600 | COc1ccc2cc(CN3CCN(C(=O)Nc4ccccc4)CC3)ccc2c1 [Example 66, 4-(6-Methoxy-naphthalen-2-ylmethyl)-piperazine-1-carboxylic acid phenylamide]

IC50 [nM] | SMILES
130 | COc1ccccc1NC(=O)N1CCN(Cc2ccc(Br)c(Br)c2)CC1 [Example 91, 4-(3,4-Dibromo-benzyl)-piperazine-1-carboxylic acid (2-methoxy-phenyl)-amide]
32 | O=C(Nc1ccccc1)N1CCN(Cc2ccc(OCc3ccccc3)cc2)CC1 [Example 77, 4-(4-Benzyloxy-benzyl)-piperazine-1-carboxylic acid phenylamide]
67 | O=C(Nc1ccccc1)N1CCN(Cc2cccc(Oc3ccc4c(c3)OCO4)c2)CC1 [Example 136, 4-[3-(Benzo[1,3]dioxol-5-yloxy)-benzyl]-piperazine-1-carboxylic acid phenylamide]
180 | O=C(Nc1ccccc1)N1CCN(Cc2ccc3c(c2)CCC3)CC1 [Example 30, 4-Indan-5-ylmethyl-piperazine-1-carboxylic acid phenylamide]
160 | O=C(Nc1ccccc1)N1CCN(Cc2cccc(Oc3cccc(Cl)c3)c2)CC1 [Example 130, 4-[3-(3-Chloro-phenoxy)-benzyl]-piperazine-1-carboxylic acid phenylamide]
59 | O=C(Nc1ccccc1)N1CCN(Cc2cccc(OS(=O)(=O)c3ccccc3)c2)CC1 [Example 138, Benzenesulfonic acid 3-(4-phenylcarbamoyl-piperazin-1-ylmethyl)-phenyl ester]
2000 | CN(C)CCCOc1cccc(CN2CCN(C(=O)Nc3ccccc3)CC2)c1 [Example 127, 4-[3-(3-Dimethylamino-propoxy)-benzyl]-piperazine-1-carboxylic acid phenylamide]
19 | O=C(Nc1ccccc1)N1CCN(Cc2cc3ccccc3s2)CC1 [Example 20, 4-Benzo[b]thiophen-2-ylmethyl-piperazine-1-carboxylic acid phenylamide]
620 | O=C(Nc1ccccc1)N1CCN(Cc2ccc3c(c2)CCO3)CC1 [Example 38, 4-(2,3-Dihydro-benzofuran-5-ylmethyl)-piperazine-1-carboxylic acid phenylamide]
83 | COc1cccc(Oc2cccc(CN3CCN(C(=O)Nc4ccccc4)CC3)c2)c1 [Example 135, 4-[3-(3-Methoxy-phenoxy)-benzyl]-piperazine-1-carboxylic acid phenylamide]
1300 | Cc1ccc(CN2CCN(C(=O)Nc3ccccc3)CC2)cc1 [Example E, 4-(4-Methyl-benzyl)-piperazine-1-carboxylic acid phenylamide, reference compound]
> 10000 | Cc1ccccc1NC(=O)N1CCN(Cc2ccc(Br)c(Br)c2)CC1 [Example 96, 4-(3,4-Dibromo-benzyl)-piperazine-1-carboxylic acid o-tolylamide]
500 | O=C(Nc1ccc(Cl)cc1)N1CCN(Cc2ccc(Br)c(Br)c2)CC1 [Example 95, 4-(3,4-Dibromo-benzyl)-piperazine-1-carboxylic acid (4-chloro-phenyl)-amide]
9 | O=C(Nc1ccccc1)N1CCN(Cc2cccc(Oc3ccc(Cl)cc3)c2)CC1 [Example 60, 4-[3-(4-Chloro-phenoxy)-benzyl]-piperazine-1-carboxylic acid phenylamide]
18 | Cc1ccc(Oc2cccc(CN3CCN(C(=O)Nc4ccccc4)CC3)c2)cc1 [Example 62, 4-(3-p-Tolyloxy-benzyl)-piperazine-1-carboxylic acid phenylamide]
69 | O=C(Nc1ccccc1)N1CCN(Cc2ccc(Br)cc2)CC1 [Example 27, 4-(4-Bromo-benzyl)-piperazine-1-carboxylic acid phenylamide]
69 | CC(C)(C)c1ccc(Oc2cccc(CN3CCN(C(=O)Nc4ccccc4)CC3)c2)cc1 [Example 63, 4-[3-(4-tert-Butyl-phenoxy)-benzyl]-piperazine-1-carboxylic acid phenylamide]
6000 | Cc1ccccc1NC(=O)N1CCN(Cc2cnc3ccccc3c2)CC1 [Example 103, 4-Quinolin-3-ylmethyl-piperazine-1-carboxylic acid o-tolylamide]
120 | O=C(Nc1cccc(F)c1)N1CCN(Cc2cnc3ccccc3c2)CC1 [Example 97, 4-Quinolin-3-ylmethyl-piperazine-1-carboxylic acid (3-fluoro-phenyl)-amide]

SMILES | IC50 [nM]
CC(C)COc1cccc(CN2CCN(C(=O)Nc3ccccc3)CC2)c1 [Example 121, 4-(3-Isobutoxy-benzyl)-piperazine-1-carboxylic acid phenylamide] | 210
CC(C)COc1ccc(CN2CCN(C(=O)Nc3ccccc3)CC2)cc1 [Example 124, 4-(4-Isobutoxy-benzyl)-piperazine-1-carboxylic acid phenylamide] | 1800
O=C(Nc1ccccc1)N1CCN(Cc2cccc(Oc3cc4ccccc4c4ccccc34)c2)CC1 [Example 132, 4-[3-(Phenanthren-9-yloxy)-benzyl]-piperazine-1-carboxylic acid phenylamide] | 3000
